Read-outs that look alike come from different tables or passages of the source. Where a SMILES comes first, the peptide text is derived from it. [ ]: non-standard residue; d: D form. The star is where a group is joined. Lithocholoyl = C[C@H](CCC(=O)*)[C@H]1CC[C@H]2[C@@H]3CC[C@@H]4C[C@H](O)CC[C@]4(C)[C@H]3CC[C@]12C; Palmitoyl = CCCCCCCCCCCCCCCC(=O)*
Columns and labels:
Gi-coupled receptor APJ = biological target: T1, Gi-coupled receptor APJ (Homo sapiens, UniProt P35414); assay: HTRF cAMP assay, inhibition of NKH477 stimulated cAMP in HEK cells stably expressing APJ (APJ-h HEK 293 cells); format: cell-based; conditions: for inhibition of NKH477 stimulated increase in cAMP (concentration response curves, FIGS. 1A-1E): HEK cells stably expressing APJ
T1 sequence (P35414 1-380): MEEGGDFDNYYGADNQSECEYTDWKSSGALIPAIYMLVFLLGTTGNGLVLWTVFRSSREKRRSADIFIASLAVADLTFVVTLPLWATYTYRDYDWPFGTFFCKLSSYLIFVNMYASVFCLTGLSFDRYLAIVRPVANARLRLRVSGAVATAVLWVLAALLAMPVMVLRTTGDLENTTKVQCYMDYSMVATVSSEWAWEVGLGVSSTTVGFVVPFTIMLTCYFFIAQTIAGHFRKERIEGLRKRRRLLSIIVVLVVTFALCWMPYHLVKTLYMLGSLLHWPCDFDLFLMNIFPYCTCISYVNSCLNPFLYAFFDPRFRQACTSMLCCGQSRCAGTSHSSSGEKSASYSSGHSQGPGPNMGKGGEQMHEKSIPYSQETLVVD
From the text: HTRF (homogeneous time resolved fluorescence) is a technology developed by Cisbio Bioassays based on TR-FRET (time-resolved fluorescence resonance energy transfer). Cisbio Bioassays has developed a wide selection of HTRF-based assays compatible with whole cells, thereby enabling functional assays to run under more physiological conditions. The IP-One assays are competitive immunoassays using cryptate-labeled anti-IP1 monoclonal antibody and d2-labeled IP1. IP1 is a relatively stable downstream metabolite of IP3, and accumulates in cells following Gq receptor activation.
cAMP kits based on a competitive immunoassay using cryptate-labeled anti-cAMP antibody and d2-labeled cAMP were used to assay the effects of APJ compounds of the present invention. […] Cells are treated with […] doxycycline and seeded in all white 96 well plates @ 40 k/well overnight.

APJ receptor = biological target: T2, APJ receptor (Homo sapiens, UniProt P35414); assay: HTRF cAMP assay, inhibition of NKH477 stimulated cAMP in Human TRex cells expressing APJ upon doxycycline induction (APJ-hTREX); format: cell-based; conditions: for Ranking: class combining EC50 and % histamine; for percent intrinsic activity at 0.3 µM: read-out: % IA (@ 300 nM)
T2 construct: expressed in transfected cells; host or cells: Human TRex cells (doxycycline-inducible)
T2 sequence (P35414 1-380): T1 sequence (P35414 1-380)
Outline: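 Cells stimulated with NKH477 and cAMP measured by HTRF competitive immunoassay (cryptate anti-cAMP antibody, d2-labeled cAMP). APJ-hTREX cells induced with […] doxycycline and seeded overnight at 40 k/well.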

[1] = biological target: T3, APJ receptor (β-arrestin recruitment) (Homo sapiens, UniProt P35414); assay: β-Arrestin signaling assay (DiscoveRx PathHunter, enzyme fragment complementation); format: cell-based; conditions: for β-arrestin recruitment (dose dependent increase in chemiluminescence): in words; for Emax: read-out: β-arrestin Signaling Max Response
T3 sequence (P35414 1-380): T1 sequence (P35414 1-380)
From the text: Activation of the β-Arrestin signaling pathway was monitored using the commercially available DiscoveRx PathHunter® assay. This assay employs a homogenous, non-imaging assay format called Enzyme Fragment Complementation (EFC) using β-galactosidase (β-Gal) as the functional reporter. […] EA is fused to β-Arrestin and ED is fused to the GPCR of interest. When the GPCR is activated and β-Arrestin is recruited to the receptor, ED and EA complementation occurs, restoring βGal activity which is measured using chemiluminescent PathHunter® Detection Reagent.

[2] = inhibition of NKH477 stimulated cAMP, APJ-hTREX cells, read-out: APJ-hTREX EC50

SMILES	inhibition of NKH477 stimulated increase in cAMP (concentration response curves, FIGS. 1A-1E) (Gi-coupled receptor APJ)	Histimine (% vs. 48/40) (Histimine (% vs. 48/40)) [%]	EC50 (APJ receptor) [nM]	Ranking (APJ receptor)	percent intrinsic activity at 0.3 µM (APJ receptor) [%]	EC50 (APJ receptor; [2]) [nM]	EC50 ([1]; PathHunter chemiluminescence, read-out: β-arrestin Signaling EC50) [nM]	β-arrestin recruitment (dose dependent increase in chemiluminescence) [1]	Emax [1] [%]	EC50 (Gi-coupled receptor APJ) [nM]	EC50 [1] [nM]
CCCCCCCCCCCCCCCC(=O)N[C@@H](CCC(N)=O)C(=O)N[C@H](C(=O)N[C@@H](Cc1ccccc1)C(=O)N[C@@H](CCCNC(=N)N)C(=O)N[C@@H](CO)C(=O)N[C@@H](CO)C(=O)N[C@@H](CCC(=O)O)C(=O)N[C@H](CCCCN)C(=O)N[C@@H](CCCNC(=N)N)C(=O)N[C@@H](CCCNC(=N)N)C(=O)N[C@@H](CO)C(=O)N[C@@H](C)C(=O)N[C@@H](CC(=O)O)C(=O)N[C@H](C(=O)N[C@@H](Cc1ccccc1)C(=O)N[C@H](C(N)=O)[C@@H](C)CC)[C@@H](C)CC)C(C)C [Compound 20] (Palmitoyl-QVFRSSE[dK]RRSADIFI-NH2)	in a dose dependent manner	29	60.7	***** (EC50<100 nM and % histamine<35%)	61						
CCCCCCCCCCCCCCCC(=O)N[C@H](C(=O)N[C@H](C(=O)N[C@@H](Cc1ccccc1)C(=O)N[C@@H](CCC(N)=O)C(=O)N[C@@H](CO)C(=O)N[C@@H](CCC(=O)O)C(=O)N[C@H](CCCCN)C(=O)N[C@@H](CCCNC(=N)N)C(=O)N[C@@H](CCCNC(=N)N)C(=O)N[C@@H](CO)C(=O)N[C@@H](C)C(=O)N[C@@H](CC(=O)O)C(=O)N[C@@H](CCC(N)=O)C(=O)N[C@@H](Cc1ccccc1)C(=O)N[C@H](C(N)=O)[C@@H](C)CC)C(C)C)[C@@H](C)O [Compound 87] (Palmitoyl-TVFQSE[dK]RRSADQFI-NH2; C-terminus assumed)		48		*** (EC50<100 nM and % histamine>35%)		11	34.4	weakly engaged	47		
CCCCCCCCCCCCCCCC(=O)N[C@H](C(=O)N[C@H](C(=O)NCC(=O)N[C@@H](CCCNC(=N)N)C(=O)N[C@@H](CO)C(=O)N[C@@H](CO)C(=O)N[C@@H](CCC(=O)O)C(=O)N[C@H](CCCCN)C(=O)N[C@@H](CCCNC(=N)N)C(=O)N[C@@H](CCCNC(=N)N)C(=O)N[C@@H](CO)C(=O)N[C@@H](C)C(=O)N[C@@H](CC(=O)O)C(=O)N[C@H](C(=O)N[C@@H](Cc1ccccc1)C(=O)N[C@H](C(N)=O)[C@@H](C)CC)[C@@H](C)CC)C(C)C)[C@@H](C)O [Compound 70] (Palmitoyl-TVGRSSE[dK]RRSADIFI-NH2)	in a dose dependent manner	29	52.5	***** (EC50<100 nM and % histamine<35%)	81						
CCCCCCCCCCCCCCCC(=O)N[C@H](C(=O)N[C@H](C(=O)N[C@@H](Cc1c[nH]cn1)C(=O)N[C@@H](CCCNC(=N)N)C(=O)N[C@@H](CO)C(=O)N[C@@H](CO)C(=O)N[C@@H](CCC(=O)O)C(=O)N[C@H](CCCCN)C(=O)N[C@@H](CCCNC(=N)N)C(=O)N[C@@H](CCCNC(=N)N)C(=O)N[C@@H](CO)C(=O)N[C@@H](C)C(=O)N[C@@H](CC(=O)O)C(=O)N[C@H](C(=O)N[C@@H](Cc1ccccc1)C(=O)N[C@H](C(N)=O)[C@@H](C)CC)[C@@H](C)CC)C(C)C)[C@@H](C)O [Compound 9] (Palmitoyl-TVHRSSE[dK]RRSADIFI-NH2; C-terminus assumed)		36	79.6	*** (EC50<100 nM and % histamine>35%)	75			weakly engaged	22	79	2260
CCCCCCCCCCCCCCCC(=O)N[C@H](C(=O)N[C@H](C(=O)N[C@@H](Cc1ccccc1)C(=O)N[C@@H](CCCNC(=N)N)C(=O)N[C@@H](CO)C(=O)N[C@@H](CO)C(=O)N[C@@H](CCC(=O)O)C(=O)N[C@H](CCCCN)C(=O)N[C@@H](CCCNC(=N)N)C(=O)N[C@@H](CCCNC(=N)N)C(=O)N[C@@H](CO)C(=O)N[C@@H](C)C(=O)N[C@@H](CC(=O)O)C(=O)N[C@H](C(=O)N[C@@H](Cc1ccccc1)C(=O)N[C@H](C(N)=O)[C@@H](C)CC)[C@@H](C)CC)C(C)C)[C@@H](C)O [Compound 1] (Palmitoyl-TVFRSSE[dK]RRSADIFI-NH2)	in a dose dependent manner	33	56.7	***** (EC50<100 nM and % histamine<35%)	81						
CCCCCCCCCCCCCCCC(=O)N[C@H](C(=O)N[C@H](C(=O)N[C@@H](Cc1ccccc1)C(=O)N[C@@H](CCCNC(=N)N)C(=O)N[C@@H](CO)C(=O)N[C@@H](CCC(N)=O)C(=O)N[C@@H](CCC(=O)O)C(=O)N[C@H](CCCCN)C(=O)N[C@@H](CCCNC(=N)N)C(=O)N[C@@H](CCCNC(=N)N)C(=O)N[C@@H](CO)C(=O)N[C@@H](C)C(=O)N[C@@H](CC(=O)O)C(=O)N[C@H](C(=O)N[C@@H](Cc1ccccc1)C(=O)N[C@H](C(N)=O)[C@@H](C)CC)[C@@H](C)CC)C(C)C)[C@@H](C)O [Compound 24] (Palmitoyl-TVFRSQE[dK]RRSADIFI-NH2)	in a dose dependent manner	22	42.6	***** (EC50<100 nM and % histamine<35%)	70						
CC[C@H](C)[C@H](NC(=O)[C@H](Cc1ccccc1)NC(=O)[C@@H](NC(=O)[C@H](CC(=O)O)NC(=O)[C@H](C)NC(=O)[C@H](CO)NC(=O)[C@H](CCCNC(=N)N)NC(=O)[C@H](CCCNC(=N)N)NC(=O)[C@H](CCCCN)NC(=O)[C@H](CCC(=O)O)NC(=O)[C@H](CO)NC(=O)[C@H](CO)NC(=O)[C@H](CCCNC(=N)N)NC(=O)[C@H](CC(=O)O)NC(=O)[C@@H](NC(=O)[C@@H](NC(=O)CC[C@@H](C)[C@H]1CC[C@H]2[C@@H]3CC[C@@H]4C[C@H](O)CC[C@]4(C)[C@H]3CC[C@]12C)[C@@H](C)O)C(C)C)[C@@H](C)CC)C(N)=O [Compound 82] (Lithocholoyl-TVDRSSEKRRSADIFI-NH2; N-terminus assumed)								weakly engaged	20		
CCCCCCCCCCCCCCCC(=O)NCC(=O)N[C@H](C(=O)N[C@@H](Cc1ccccc1)C(=O)N[C@@H](CCCNC(=N)N)C(=O)N[C@@H](CO)C(=O)N[C@@H](CO)C(=O)N[C@@H](CCC(=O)O)C(=O)N[C@H](CCCCN)C(=O)N[C@@H](CCCNC(=N)N)C(=O)N[C@@H](CCCNC(=N)N)C(=O)N[C@@H](CO)C(=O)N[C@@H](C)C(=O)N[C@@H](CC(=O)O)C(=O)N[C@H](C(=O)N[C@@H](Cc1ccccc1)C(=O)N[C@H](C(N)=O)[C@@H](C)CC)[C@@H](C)CC)C(C)C [Compound 68] (Palmitoyl-GVFRSSE[dK]RRSADIFI-NH2)	in a dose dependent manner	21	56.4	***** (EC50<100 nM and % histamine<35%)	69						
CCCCCCCCCCCCCCCC(=O)N[C@H](C(=O)N[C@H](C(=O)N[C@@H](Cc1ccccc1)C(=O)N[C@@H](CCCNC(=N)N)C(=O)N[C@@H](CO)C(=O)N[C@@H](CO)C(=O)N[C@@H](CCC(=O)O)C(=O)N[C@H](CCCCN)C(=O)N[C@@H](CCCNC(=N)N)C(=O)N[C@@H](CCCNC(=N)N)C(=O)N[C@@H](CO)C(=O)N[C@@H](C)C(=O)N[C@@H](CC(=O)O)C(=O)N[C@@H](CC(=O)O)C(=O)N[C@@H](Cc1ccccc1)C(=O)N[C@H](C(N)=O)[C@@H](C)CC)C(C)C)[C@@H](C)O [Compound 40] (Palmitoyl-TVFRSSE[dK]RRSADDFI-NH2; C-terminus assumed)		46		*** (EC50<100 nM and % histamine>35%)	71	48.2					

Source: US20150011466A1, “APJ Receptor Compounds” (priority 2012, published 2015)
